What is called IC50 is the concentration needed to halve the response being measured. A low value points to higher potency.

The structures appear in SMILES notation.

The text below walks through data of ChEMBL document CHEMBL1145268, “Synthesis and evaluation of 6-hydroxy-7-methoxy-4-chromanone- and chroman-2-carboxamides as antioxidants” (Bioorg Med Chem Lett, 2005).

For experiment [1], the species on record is Rattus norvegicus. Put plainly: Inhibition concentration against DPPH radical scavenging activity […] was determined. The experiment is classed as functional. In general terms: Loss of DPPH colour is used to gauge radical scavenging.
The species entered for experiment [2] is Rattus norvegicus. Kind of experiment: Inhibition concentration against lipid peroxidation initiated by [Fe2+] and L-ascorbic acid in rat brain homogenates. The experiment is classed as functional.

Consider `CCCNC(=O)C1CCc2cc(O)c(OC)cc2O1` (stereo unspecified), for which the IC50 in the experiment listed under Rattus norvegicus [1] turned out to be 42.9 µM; in the experiment listed under Rattus norvegicus [2], 119 µM.
In the same order, the values of `COc1cc2c(cc1O)C(=O)CC(C(N)=O)O2` (stereo unspecified) are 214 µM and > 300 µM.
The matching figures for `COc1cc2c(cc1O)C(=O)CC(C(=O)NCc1ccccc1)O2` (stereo unspecified): 118 µM and > 300 µM.
For the compound `COc1cc2c(cc1O)C(=O)CC(C(=O)Nc1ccccc1)O2` (stereo unspecified), the IC50 worked out at 119 µM in the experiment listed under Rattus norvegicus [1] and 293 µM in the experiment filed under Rattus norvegicus [2].
For the compound `CCCCNC(=O)C1CCc2cc(O)c(OC)cc2O1` (stereo unspecified), the concentration for half-maximal inhibition (IC50) in the experiment filed under Rattus norvegicus [1] is 24.8 µM; in the experiment listed under Rattus norvegicus [2] it was 51.3 µM.
In the same order, the values of `CCCNC(=O)C1CC(=O)c2cc(O)c(OC)cc2O1` (stereo unspecified) are 80.8 µM and > 300 µM.
The matching figures for `CCCCNC(=O)C1CC(=O)c2cc(O)c(OC)cc2O1` (stereo unspecified): 66.4 µM and 177 µM.
Regarding `COc1cc2c(cc1O)C(=O)CC(C(=O)O)O2` (stereo unspecified), the results for the IC50 in the experiment listed under Rattus norvegicus [1] and in the experiment listed under Rattus norvegicus [2] were 104 µM and > 300 µM, respectively.
In the same order, the values of `COc1cc2c(cc1O)CCC(C(=O)Nc1ccccc1)O2` (stereo unspecified) are 24.9 µM and 6.9 µM.
In the case of `COc1cc2c(cc1O)CCC(C(=O)NCc1ccccc1)O2` (stereo unspecified), the IC50 in the experiment listed under Rattus norvegicus [1] is 21.7 µM; in the experiment listed under Rattus norvegicus [2], 16.6 µM.
For `COc1cc2c(cc1O)CCC(C(=O)Nc1ccc([N+](=O)[O-])cc1)O2` (stereo unspecified), the IC50 in the experiment filed under Rattus norvegicus [1] turned out to be 40.1 µM; in the experiment filed under Rattus norvegicus [2] it was 3.8 µM.
In the same order, the values of `Cc1c(C)c2c(c(C)c1O)CCC(C)(C(=O)O)O2` (stereo unspecified) [TROLOX] are 18.2 µM and 166 µM.
For `COc1cc2c(cc1O)CCC(C(=O)O)O2` (stereo unspecified), the results for the IC50 in the experiment filed under Rattus norvegicus [1] and in the experiment listed under Rattus norvegicus [2] were 16.8 µM and > 300 µM, respectively.
